The subject of one data set is HeLa H2B-RFP cells. As to the kind of experiment: Exogenous cyclin-GFP expression, live-cell imaging and quantitation. In kind it is cell-based, human. The conditions noted are these: Fig 5D; GFP at 60 min vs onset of mitosis; 20 μM proTAME or proAAME, 150 nM nocodazole. The procedure:
HeLa H2B-RFP cells were transduced with cyclin B1-GFP or cyclin A2-GFP adenovirus for 40 h. Phenol Red-Free DMEM (Mediatech) supplemented with 10% FBS and 1:100 Penicillin-Streptomycin-Glutamine (Mediatech) was used as imaging medium. 20 μM proAAME, 20 μM proTAME or 150 nM nocodazole was added 45 min prior to the start of imaging. Live cell imaging was set up as described above except that the cells were plated in an 8-well chambered coverglasses (NUNC Lab-tek 155411). Four positions per treatment group were imaged with DIC transmitted light, red fluorescence, and green fluorescence (Semrock GFP/HcRed “Pinkel” filter set) at 12 min intervals for 24 h. Stacks of red and green fluorescence were merged, saved as AVI video files and analyzed using ImageJ. For quantitation, the first GFP-positive cells that undergo mitosis in three separate movies were chosen, giving at least 30 cells quantitated for each treatment group. Mean intensity values for the green channel were collected for a cytoplasmic region of a cell upon mitotic entry, mitotic exit, or after 1 h of mitotic arrest. At the same time points, background mean green intensity was determined and individually subtracted from the cytoplasmic mean intensity. This background corrected mean intensity value was then used to determine the percentage of the original GFP signal remaining at the completion of division (for the control cells) or after 1 h of mitotic arrest (for the nocodazole and proTAME treated cells). The average values for all quantitated cells were plotted with the error bars representing standard error of the mean.

Another data set concerns HeLa cells. As to the kind of experiment: Immunofluorescence of mitotic spindle and interkinetochore distance. In kind it is cell-based, human. The arrangement: Median inter-kinetochore distance / Average inter-kinetochore distance: unit not given here. The conditions noted are these: for Effect on mitotic spindle: asynchronous HeLa, 2 h, 12 μM proTAME, nocodazole or taxol. The procedure:
HeLa cells grown in DMEM+10% FBS were plated on 25 mm glass coverslips in a E-well dish at a density of 130,000/ml×3 ml 48 h prior to treatment. They were then treated with 0.06% DMSO, 12 μM proTAME, 300 nM nocodazole or 300 nM taxol for 2 h. The cells were washed twice with PBS and fixed with 3% paraformaldehyde for 15 min. The cells were then washed with PBS and permeabilized with PBS plus 0.5% Triton X-100 for 2 min. The cells were then washed with PBS and blocked with PBS plus 5% FBS for 1 h. CREST antisera diluted 1:50 into PBS was added to the cells and incubated at room temperature for 1 h. The cells were washed with PBS and incubated with 1:1000 anti-human-Alexa 568 (Invitrogen, A21090) and 1:100 anti-α-tubulin-FITC for 1 h. The cells were then washed with PBS and the nuclei were stained with 1 μg/ml Hoechst 33342. The cover slips were mounted in 0.1M N-propylgallate in 9:1 glycerol:PBS. Z-series images were taken on a Nikon TE2000 microscope with PerkinElmer spinning disk confocal device. Maximal Z-projection images of individual cells were made by Image J. To measure interkinetochore distances, a straight line was drawn across a kinetochore pair in the same confocal plane and pixel intensities along the line were plotted so that each kinetochore would be represented by a peak on the line. The interkinetochore distance was calculated as the distance between the peaks. Fifty-five kinetochore pairs from 5 cells treated with DMSO or proTAME were measured and the p-value was calculated with a paired student test.

Another data set relates to hTERT-RPE1 H2B-GFP cells. Kind of data set: Live imaging of mitotic duration in hTERT-RPE1 H2B-GFP cells. In kind it is cell-based, human. The procedure:
FIG. 18A is a graph and table showing that proTAME induces a mitotic delay in hTERT-RPE1 H2B-GFP cells. Asynchronous hTERT-RPE1 H2B-GFP cells were treated with 0.06% DMSO, 6 μM proTAME or 12 μM proAAME. Cells were imaged at 12 min interval. Cumulative frequency curves of mitotic duration and cell fate distribution are shown.
The imaging plate was mounted onto a motorized stage (Prior ProScan II) on a Nikon TE2000E PFS inverted microscope fitted with an incubation chamber maintained at 37° C. and supplied with 5% CO2. A 20× Plan Apo 0.75 NA or 40× Plan Fluor 0.75 NA objective lens was used as indicated and images were collected with 2×2 binning. DIC or GFP fluorescent images were taken every 12 min (unless otherwise specified) for 36 h with a Hamamatsu ORCA cooled CCD camera and Nikon Elements Software. TIFF files of each image were exported from Elements and used to build stacks and Quicktime movies with Metamorph imaging software (Molecular Devices). For manual analysis, mitotic duration is counted as the time between the first frame of chromosome condensation and the frame of chromosome segregation (anaphase) or decondensation (mitotic exit in the presence of nocodazole) or cell death (chromosomes shrinking to a small bright dot).

The nature of data set [1]: ProTAME activation analysis (LC/MS) in extract. In kind it is in vitro ADME. The conditions noted are these: 50 μM in interphase Xenopus extract. The procedure:
ProTAME was added to interphase Xenopus extract at 50 μM or cell growth media at 20 μM. For interphase extract, 800 μl of sample was collected at 0 min, 10 min, 20 min and 30 min after addition of proTAME and diluted to 8 ml with XB. For cell culture, approximately 800,000 cells were collected at 1 h, 2 h and 3 h after addition of proTAME and lysed in 400 μl lysis buffer as described above and subsequently diluted to 4 ml with lysis buffer. The diluted extract or cell lysate was extracted with 1.5 volume of ethyl acetate. The extracts were dried in vacuo and the dry extracts were resuspended in 200 μl of methanol for LC/MS analysis. LC/MS data were obtained using an Agilent series 1200 LC/6130 MS system with a reversed-phase C18 column (Phenomenex Luna C18(2), 4.6 mm×100 mm, 5 μm) and a CH3CN/H2O gradient solvent system beginning with 10% aqueous CH3CN and ending at 100% CH3CN at 20 min. 10 μl of each sample was injected for each analysis.

Where [2] appears, read: Fig S4A, asynchronous hTERT-RPE1 cells, proAAME 12 μM, proTAME 6 μM.

On to `COC(=O)[C@H](CCCN/C(=N\C(=O)OCOC(=O)Cc1ccccc1)NC(=O)OCOC(=O)Cc1ccccc1)NS(=O)(=O)c1ccc(C)cc1` [proTAME], for which, in the data set on HeLa H2B-RFP cells, the “Average cyclin A2-GFP (fraction remaining)” value was 0.99 fraction remaining, the “Average cyclin B1-GFP (fraction remaining)” value is 1.17 fraction remaining, the “Median cyclin A2-GFP (fraction remaining)” value is listed as 0.95 fraction remaining and the “Median cyclin B1-GFP (fraction remaining)” value came out at 1.17 fraction remaining. In the data set on HeLa cells (Fig 5E, 12 μM proTAME for 2 h), the Average inter-kinetochore distance came to 1.26 and the Median inter-kinetochore distance is listed as 1.28. Also, in the data set with HeLa cells, the “Effect on mitotic spindle” value is “no measurable differences in mitotic spindle morphology or inter-kinetochore distance”. For the same molecule, in the data set with hTERT-RPE1 H2B-GFP cells (setting [2]), the Average mitotic duration was determined as 819.0 min and the Median mitotic duration came to 522 min. For the same molecule, the Median mitotic duration result in the data set on hTERT-RPE1 H2B-GFP cells (asynchronous hTERT-RPE1, 6 μM) was “over 8 h”. Further, the “Conversion of prodrug to TAME” value in data set [1] is on record as “rapidly converted to TAME”.
In the case of `COC(=O)Nc1nc2ccc(C(=O)c3cccs3)cc2[nH]1` [Nocodazole, reference compound], in the data set on HeLa H2B-RFP cells, the “Average cyclin A2-GFP (fraction remaining)” value came out at 0.28 fraction remaining, the “Average cyclin B1-GFP (fraction remaining)” value was 0.87 fraction remaining, the “Median cyclin A2-GFP (fraction remaining)” value is 0.28 fraction remaining and the “Median cyclin B1-GFP (fraction remaining)” value came to 0.83 fraction remaining. In addition, the “Effect on mitotic spindle” value with HeLa cells is “strongly perturbed spindle organization”.
